Reference: publication PMC10239507, “Development of allosteric and selective CDK2 inhibitors for contraception with negative cooperativity to cyclin binding” (Nature Communications, 2023)

Tests used:
Assay in all cases: biochemical
[1] = target: T1, 371 kinases (kinase named in each endpoint) (Homo sapiens, UniProt Q16512); settings: PKN1/PRK1
T1 construct: purchased Reaction Biology

[2] = target: T2, 371 kinases (kinase named in each endpoint) (Homo sapiens, UniProt Q6VAB6); settings: KSR2
T2 construct: purchased Reaction Biology

[3] = target: T3, 371 kinases (kinase named in each endpoint) (Homo sapiens, UniProt P22607); settings: FGFR3
T3 construct: purchased Reaction Biology

[4] = target: T4, 371 kinases (kinase named in each endpoint) (Homo sapiens, UniProt O14757); settings: CHK1
T4 construct: purchased Reaction Biology

[5] = target: T5, 371 kinases (kinase named in each endpoint) (Homo sapiens, UniProt Q00534)
T5 construct: purchased Reaction Biology

[6] = target: T6, 371 kinases (kinase named in each endpoint) (Homo sapiens, UniProt O43318); settings: TAK1
T6 construct: purchased Reaction Biology

[7] = target: T7, 371 kinases (kinase named in each endpoint) (Homo sapiens, UniProt Q96L34); settings: MARK4
T7 construct: purchased Reaction Biology

[8] = target: T8, 371 kinases (kinase named in each endpoint) (Homo sapiens, UniProt Q16566); settings: CAMK4
T8 construct: purchased Reaction Biology

[9] = target: T9, 371 kinases (kinase named in each endpoint) (Homo sapiens, UniProt Q00537); settings: CDK17/CYCLIN Y (PCTK2)
T9 construct: purchased Reaction Biology

[10] = target: T10, 371 kinases (kinase named in each endpoint) (Homo sapiens, UniProt P29597); settings: TYK2
T10 construct: purchased Reaction Biology

[11] = target: T11, 371 kinases (kinase named in each endpoint) (Homo sapiens, UniProt P54756); settings: EPHA5
T11 construct: purchased Reaction Biology

[12] = target: T12, 371 kinases (kinase named in each endpoint) (Homo sapiens, UniProt P25098); settings: GRK2
T12 construct: purchased Reaction Biology

[13] = target: T13, 371 kinases (kinase named in each endpoint) (Homo sapiens, UniProt Q15418); settings: RSK1
T13 construct: purchased Reaction Biology

[14] = target: T14, 371 kinases (kinase named in each endpoint) (Homo sapiens, UniProt Q15569); settings: TESK1
T14 construct: purchased Reaction Biology

[15] = target: T15, 371 kinases (kinase named in each endpoint) (Homo sapiens, UniProt Q96GD4); settings: AURORA B
T15 construct: purchased Reaction Biology

[16] = target: T16, 371 kinases (kinase named in each endpoint) (Homo sapiens, UniProt P54760); settings: EPHB4
T16 construct: purchased Reaction Biology

[17] = target: T17, 371 kinases (kinase named in each endpoint) (Homo sapiens, UniProt Q9UPZ9); settings: LCK2/ICK
T17 construct: purchased Reaction Biology

[18] = target: T18, 371 kinases (kinase named in each endpoint) (Homo sapiens, UniProt Q9NYL2); settings: ZAK/MLTK
T18 construct: purchased Reaction Biology

[19] = target: T19, 371 kinases (kinase named in each endpoint) (Homo sapiens, UniProt Q14289); settings: PYK2
T19 construct: purchased Reaction Biology

[20] = target: T20, 371 kinases (kinase named in each endpoint) (Homo sapiens, UniProt Q13177); settings: PAK2
T20 construct: purchased Reaction Biology

[21] = target: T21, 371 kinases (kinase named in each endpoint) (Homo sapiens, UniProt Q13237); settings: PKG2/PRKG2
T21 construct: purchased Reaction Biology

[22] = target: T22, 371 kinases (kinase named in each endpoint) (Homo sapiens, UniProt Q15208); settings: STK38/NDR1
T22 construct: purchased Reaction Biology

[23] = target: T23, 371 kinases (kinase named in each endpoint) (Homo sapiens, UniProt P17948); settings: FLT1/VEGFR1
T23 construct: purchased Reaction Biology

[24] = target: T24, 371 kinases (kinase named in each endpoint) (Homo sapiens, UniProt P48729); settings: CK1A1
T24 construct: purchased Reaction Biology

[25] = target: T25, 371 kinases (kinase named in each endpoint) (Homo sapiens, UniProt P68400); settings: CK2A
T25 construct: purchased Reaction Biology

[26] = target: T26, 371 kinases (kinase named in each endpoint) (Homo sapiens, UniProt Q9H0K1); settings: SIK2
T26 construct: purchased Reaction Biology

[27] = target: T27, 371 kinases (kinase named in each endpoint) (Homo sapiens, UniProt P51617); settings: IRAK1
T27 construct: purchased Reaction Biology

[28] = target: T28, 371 kinases (kinase named in each endpoint) (Homo sapiens, UniProt P29323); settings: EPHB2
T28 construct: purchased Reaction Biology

[29] = target: T29, 371 kinases (kinase named in each endpoint) (Homo sapiens, UniProt Q15831); settings: LKB1
T29 construct: purchased Reaction Biology

[30] = target: T30, 371 kinases (kinase named in each endpoint) (Homo sapiens, UniProt Q9H2X6); settings: HIPK2
T30 construct: purchased Reaction Biology

[31] = target: T31, 371 kinases (kinase named in each endpoint) (Homo sapiens, UniProt Q13873); settings: BMPR2
T31 construct: purchased Reaction Biology

[32] = target: T32, 371 kinases (kinase named in each endpoint) (Homo sapiens, UniProt Q16832); settings: DDR2
T32 construct: purchased Reaction Biology

[33] = target: T33, 371 kinases (kinase named in each endpoint) (Homo sapiens, UniProt O94806); settings: PKCNU/PRKD3
T33 construct: purchased Reaction Biology

[34] = target: T34, 371 kinases (kinase named in each endpoint) (Homo sapiens, UniProt P53671); settings: LIMK2
T34 construct: purchased Reaction Biology

[35] = target: T35, 371 kinases (kinase named in each endpoint) (Homo sapiens, UniProt Q9HBY8); settings: SGK2
T35 construct: purchased Reaction Biology

[36] = target: T36, 371 kinases (kinase named in each endpoint) (Homo sapiens, UniProt Q8N5S9); settings: CAMKK1
T36 construct: purchased Reaction Biology

T5 sequence (Q00534 whole entry): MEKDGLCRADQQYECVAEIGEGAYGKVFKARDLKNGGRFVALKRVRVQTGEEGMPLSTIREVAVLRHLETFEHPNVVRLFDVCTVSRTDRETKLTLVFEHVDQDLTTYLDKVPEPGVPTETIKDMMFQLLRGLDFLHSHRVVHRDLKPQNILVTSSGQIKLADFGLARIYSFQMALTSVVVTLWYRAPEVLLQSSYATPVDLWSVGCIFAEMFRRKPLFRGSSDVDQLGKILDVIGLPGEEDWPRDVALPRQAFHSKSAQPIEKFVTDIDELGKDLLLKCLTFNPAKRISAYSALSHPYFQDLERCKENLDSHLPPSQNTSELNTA
T18 sequence (Q9NYL2 whole entry): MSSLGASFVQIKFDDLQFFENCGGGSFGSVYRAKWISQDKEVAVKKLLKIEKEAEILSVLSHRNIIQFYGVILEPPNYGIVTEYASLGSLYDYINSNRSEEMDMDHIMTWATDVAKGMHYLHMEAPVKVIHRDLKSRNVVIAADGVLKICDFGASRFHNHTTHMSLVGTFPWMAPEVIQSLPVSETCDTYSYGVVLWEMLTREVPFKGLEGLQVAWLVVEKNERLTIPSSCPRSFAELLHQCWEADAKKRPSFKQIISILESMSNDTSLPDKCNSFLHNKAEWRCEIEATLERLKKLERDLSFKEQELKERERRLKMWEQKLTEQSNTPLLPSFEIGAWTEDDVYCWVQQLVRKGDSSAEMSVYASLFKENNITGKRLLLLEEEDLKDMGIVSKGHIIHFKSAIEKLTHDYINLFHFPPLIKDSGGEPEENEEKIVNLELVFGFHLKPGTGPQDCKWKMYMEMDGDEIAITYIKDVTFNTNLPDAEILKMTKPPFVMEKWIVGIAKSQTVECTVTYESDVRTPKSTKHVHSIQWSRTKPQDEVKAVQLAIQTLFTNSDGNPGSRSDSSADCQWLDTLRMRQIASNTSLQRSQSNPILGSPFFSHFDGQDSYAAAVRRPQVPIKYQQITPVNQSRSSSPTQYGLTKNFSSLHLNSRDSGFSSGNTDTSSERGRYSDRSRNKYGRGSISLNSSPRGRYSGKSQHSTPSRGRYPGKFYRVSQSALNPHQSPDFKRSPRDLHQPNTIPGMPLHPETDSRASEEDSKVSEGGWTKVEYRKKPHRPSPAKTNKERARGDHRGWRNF
T32 sequence (Q16832 22-855): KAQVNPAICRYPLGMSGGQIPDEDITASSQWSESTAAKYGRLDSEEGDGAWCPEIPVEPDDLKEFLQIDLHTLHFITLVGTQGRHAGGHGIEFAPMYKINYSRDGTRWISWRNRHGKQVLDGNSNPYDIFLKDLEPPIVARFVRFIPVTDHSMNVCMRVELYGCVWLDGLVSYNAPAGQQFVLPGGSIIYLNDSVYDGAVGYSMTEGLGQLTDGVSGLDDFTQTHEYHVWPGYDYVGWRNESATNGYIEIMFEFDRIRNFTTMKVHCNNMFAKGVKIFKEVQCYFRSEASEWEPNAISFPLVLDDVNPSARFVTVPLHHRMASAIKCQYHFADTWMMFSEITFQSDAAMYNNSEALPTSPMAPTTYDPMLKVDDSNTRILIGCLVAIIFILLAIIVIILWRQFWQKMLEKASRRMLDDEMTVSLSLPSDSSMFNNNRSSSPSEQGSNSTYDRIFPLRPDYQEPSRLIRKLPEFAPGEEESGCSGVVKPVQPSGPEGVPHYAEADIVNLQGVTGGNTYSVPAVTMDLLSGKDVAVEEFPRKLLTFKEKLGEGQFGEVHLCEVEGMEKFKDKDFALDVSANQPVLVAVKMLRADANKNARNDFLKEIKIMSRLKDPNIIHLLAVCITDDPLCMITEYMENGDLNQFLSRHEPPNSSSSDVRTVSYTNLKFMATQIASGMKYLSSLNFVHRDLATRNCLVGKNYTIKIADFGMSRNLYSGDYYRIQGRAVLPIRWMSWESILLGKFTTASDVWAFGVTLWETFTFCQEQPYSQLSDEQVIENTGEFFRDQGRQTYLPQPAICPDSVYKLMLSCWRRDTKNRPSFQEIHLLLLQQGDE
T31 sequence (Q13873 27-1038): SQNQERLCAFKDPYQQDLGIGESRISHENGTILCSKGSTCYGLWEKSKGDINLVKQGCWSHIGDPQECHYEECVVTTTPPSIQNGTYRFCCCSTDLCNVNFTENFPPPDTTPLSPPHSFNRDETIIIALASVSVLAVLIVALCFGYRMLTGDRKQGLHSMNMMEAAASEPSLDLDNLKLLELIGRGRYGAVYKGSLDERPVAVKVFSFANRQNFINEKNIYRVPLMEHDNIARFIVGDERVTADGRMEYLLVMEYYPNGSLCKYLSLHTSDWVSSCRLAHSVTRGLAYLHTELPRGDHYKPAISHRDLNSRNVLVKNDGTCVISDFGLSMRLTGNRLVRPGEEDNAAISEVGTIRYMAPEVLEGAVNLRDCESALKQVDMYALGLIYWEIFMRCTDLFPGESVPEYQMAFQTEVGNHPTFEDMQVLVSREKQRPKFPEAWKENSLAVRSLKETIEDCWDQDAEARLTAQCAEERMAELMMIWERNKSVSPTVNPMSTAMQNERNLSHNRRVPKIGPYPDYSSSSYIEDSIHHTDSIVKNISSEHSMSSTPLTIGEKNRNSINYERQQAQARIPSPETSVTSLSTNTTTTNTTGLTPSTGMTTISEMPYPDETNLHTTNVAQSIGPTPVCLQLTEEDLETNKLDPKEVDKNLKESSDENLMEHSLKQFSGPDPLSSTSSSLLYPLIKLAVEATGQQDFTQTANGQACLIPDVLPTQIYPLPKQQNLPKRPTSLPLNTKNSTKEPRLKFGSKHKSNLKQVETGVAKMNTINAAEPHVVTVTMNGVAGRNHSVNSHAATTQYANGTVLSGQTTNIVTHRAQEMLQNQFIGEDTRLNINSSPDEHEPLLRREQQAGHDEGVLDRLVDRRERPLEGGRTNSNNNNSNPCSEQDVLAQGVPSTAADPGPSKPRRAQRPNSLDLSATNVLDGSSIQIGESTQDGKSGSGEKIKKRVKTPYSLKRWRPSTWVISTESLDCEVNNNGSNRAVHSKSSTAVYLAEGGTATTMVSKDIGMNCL
T12 sequence (P25098 whole entry): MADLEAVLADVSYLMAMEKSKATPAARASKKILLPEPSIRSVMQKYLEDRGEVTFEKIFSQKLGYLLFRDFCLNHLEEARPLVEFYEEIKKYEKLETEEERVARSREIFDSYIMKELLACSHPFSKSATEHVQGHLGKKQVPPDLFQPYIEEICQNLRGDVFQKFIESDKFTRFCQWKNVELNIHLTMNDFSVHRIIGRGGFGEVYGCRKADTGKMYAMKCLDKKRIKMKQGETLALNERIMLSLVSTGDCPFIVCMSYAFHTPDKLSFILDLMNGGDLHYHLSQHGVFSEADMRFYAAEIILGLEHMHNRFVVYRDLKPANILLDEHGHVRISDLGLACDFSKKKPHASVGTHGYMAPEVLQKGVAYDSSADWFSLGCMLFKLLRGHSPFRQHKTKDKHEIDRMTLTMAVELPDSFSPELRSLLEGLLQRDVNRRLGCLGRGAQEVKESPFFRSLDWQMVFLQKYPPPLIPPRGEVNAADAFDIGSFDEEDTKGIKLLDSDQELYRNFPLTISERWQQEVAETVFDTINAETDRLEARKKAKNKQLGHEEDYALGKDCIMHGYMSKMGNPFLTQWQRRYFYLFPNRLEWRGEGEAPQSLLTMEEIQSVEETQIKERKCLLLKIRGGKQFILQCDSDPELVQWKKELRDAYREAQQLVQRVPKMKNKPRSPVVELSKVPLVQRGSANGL
T9 sequence (Q00537 whole entry): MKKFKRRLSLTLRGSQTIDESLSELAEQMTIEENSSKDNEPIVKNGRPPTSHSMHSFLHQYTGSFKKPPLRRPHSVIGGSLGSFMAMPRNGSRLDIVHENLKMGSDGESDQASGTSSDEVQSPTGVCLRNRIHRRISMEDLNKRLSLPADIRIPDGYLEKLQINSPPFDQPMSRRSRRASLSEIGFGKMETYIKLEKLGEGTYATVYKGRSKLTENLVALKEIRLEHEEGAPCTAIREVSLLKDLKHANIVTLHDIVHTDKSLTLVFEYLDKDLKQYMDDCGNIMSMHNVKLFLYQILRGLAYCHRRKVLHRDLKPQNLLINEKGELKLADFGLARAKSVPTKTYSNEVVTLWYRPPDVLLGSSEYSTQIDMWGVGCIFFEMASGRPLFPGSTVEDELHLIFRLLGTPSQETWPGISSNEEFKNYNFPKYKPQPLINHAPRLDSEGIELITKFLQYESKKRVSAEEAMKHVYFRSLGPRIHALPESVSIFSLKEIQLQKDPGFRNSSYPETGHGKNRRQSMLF
T8 sequence (Q16566 whole entry): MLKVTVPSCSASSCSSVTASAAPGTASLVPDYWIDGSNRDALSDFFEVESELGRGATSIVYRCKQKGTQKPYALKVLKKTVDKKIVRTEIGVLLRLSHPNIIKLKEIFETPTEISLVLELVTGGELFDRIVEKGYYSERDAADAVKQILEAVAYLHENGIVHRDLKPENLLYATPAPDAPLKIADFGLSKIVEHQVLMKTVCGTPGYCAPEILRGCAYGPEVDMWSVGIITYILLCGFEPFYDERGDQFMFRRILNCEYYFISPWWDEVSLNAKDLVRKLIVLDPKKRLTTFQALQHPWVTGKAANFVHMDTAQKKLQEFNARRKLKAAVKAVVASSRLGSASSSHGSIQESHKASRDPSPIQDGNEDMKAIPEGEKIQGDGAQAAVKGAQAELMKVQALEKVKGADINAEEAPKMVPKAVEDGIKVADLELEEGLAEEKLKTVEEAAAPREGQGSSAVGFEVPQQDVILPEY
T15 sequence (Q96GD4 whole entry): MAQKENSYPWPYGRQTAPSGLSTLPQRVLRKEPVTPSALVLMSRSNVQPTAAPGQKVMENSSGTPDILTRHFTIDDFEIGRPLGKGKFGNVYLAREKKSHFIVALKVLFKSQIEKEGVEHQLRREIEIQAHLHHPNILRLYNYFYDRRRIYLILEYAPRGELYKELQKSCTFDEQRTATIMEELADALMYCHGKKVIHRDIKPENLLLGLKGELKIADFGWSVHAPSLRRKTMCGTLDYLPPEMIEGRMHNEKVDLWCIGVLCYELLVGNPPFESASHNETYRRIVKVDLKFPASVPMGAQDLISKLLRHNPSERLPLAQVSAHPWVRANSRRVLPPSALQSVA

O=C(O)c1cc(C(F)(F)F)ccc1NCCc1c[nH]c2cc(Br)ccc12 [Compound 5, 2-((2-(6-Bromo-1H-indol-3-yl)ethyl)amino)−5-(trifluoromethyl)benzoic Acid] was tested, and the activity at 10 µM [1] was 123 ± 1.9%, the activity at 10 µM [2] was 83.3 ± 1.5% and the activity at 10 µM [3] was 90.7 ± 1.5%. For the same compound, the activity at 10 µM [4] was 95.2 ± 1.2%, the activity at 10 µM ([5]; CDK6/CYCLIN D1) was 87.9 ± 0.1% and the activity at 10 µM ([5]; CDK6/CYCLIN D2) was 44.6 ± 0.5%. For the same compound, the activity at 10 µM ([5]; CDK6/CYCLIN D3) was 60.9 ± 1.2%, the activity at 10 µM [6] was 92.1 ± 0.7% and the activity at 10 µM [7] was 69.6 ± 1.3%. The activity at 10 µM [8] was 27.5 ± 6.5%, the activity at 10 µM [9] was 124% and the activity at 10 µM [10] was 78.1 ± 0.7%. For the same compound, the activity at 10 µM [11] was 93.4 ± 0.3%, the activity at 10 µM [12] was 96.5 ± 0.4% and the activity at 10 µM [13] was 83.1 ± 2.8%. It also gave an activity at 10 µM [14] of 82.4 ± 1.3%, an activity at 10 µM [15] of 34.9 ± 0.5% and an activity at 10 µM [16] of 91.7 ± 0.5%. For the same compound, the activity at 10 µM [17] was 98.2 ± 1.3%, the activity at 10 µM [18] was 96.9 ± 0.2% and the activity at 10 µM [19] was 75.6 ± 1.9%. The activity at 10 µM [20] was 95.6 ± 0.3%, the activity at 10 µM [21] was 117 ± 7.9% and the activity at 10 µM [22] was 88 ± 0.7%. For the same compound, the activity at 10 µM [23] was 85 ± 0.7%, the activity at 10 µM [24] was 91.2 ± 0.3% and the activity at 10 µM [25] was 59.1 ± 0.1%. The activity at 10 µM [26] was 81 ± 0.3%, the activity at 10 µM [27] was 102 ± 2.5% and the activity at 10 µM [28] was 89.8%. The activity at 10 µM [29] was 93.7 ± 1.8%, the activity at 10 µM [30] was 79.9 ± 0.7% and the activity at 10 µM [31] was 88 ± 5.4%. For the same compound, the activity at 10 µM [32] was 103 ± 3.6%, the activity at 10 µM [33] was 139 ± 7.1% and the activity at 10 µM [34] was 75.1 ± 1.7%. It also gave an activity at 10 µM [35] of 63.9 ± 2% and an activity at 10 µM [36] of 65.6 ± 1.3%.
